Source: patent US20070275911A1, “Targeted Drug-Formaldehyde Conjugates and Methods of Making and Using the Same” (priority 2003, published 2007)

What was measured:
MDA-MB-231 = experiment: Breast cancer cell growth inhibition, 4 h treatment
Protocol: (§1) Breast cancer cell growth inhibition: The ER-targeted DOX-formaldehyde conjugates, 11a-c, were evaluated against four breast cancer cell lines that differ in terms of estrogen receptor and multidrug resistance expression. MCF-7 cells are human breast adenocarcinoma cells that express estrogen receptor at a level of 195,000 sites/cell. MCF-7/Adr cells are an ER-negative, doxorubicin-resistant variant of the parent MCF-7 that express the multidrug resistance (MDR) phenotype. MDA-MB-231 and MDA-MB-435 are ER-negative human breast adenocarcinoma and ductal carcinoma cells, respectively. All cytotoxins were formulated as 100× solutions in DMSO/1% AcOH and delivered to cells as 1% DMSO (0.01% AcOH) in cell culture medium. In all experiments cell treatment lasted 4 h.
(§2) In Vitro cellular growth inhibition experiments: The IC50 for the targeted formaldehyde conjugates and all control compounds were performed as previously described with minor modifications. All compounds were solubilized in dimethylsulfoxide containing 1% v/v acetic acid. The concentrations of all 100× DMSO/1% AcOH drug solutions was determined spectrophotometrically by absorbance at 480 nm (ε=[…]). […] For every experiment each drug level and controls were performed in hexuplicate; each experiment was performed in at least duplicate. Error bars represent one standard deviation about the mean for the six wells per lane measured for each drug concentration.

MCF-7/Adr cells [1] = experiment: as above
Protocol: as §1, §2

MCF-7 cells = experiment: as above
Protocol: as §1, §2

MDA-MB-435 = experiment: as above
Protocol: as §1, §2

MCF-7/Adr cells [2] = experiment: Uptake and release by flow cytometry; type: cell-based, human; conditions: for drug uptake (DOX fluorophore): 500 nM, 20, 40 and 60 min
Protocol: Uptake and release of DOX-TEG-TAM: The uptake of 500 nM DOX, DOXSF, and DOX-TEG-TAM following treatment for various times up to 1 h was assessed by flow cytometry. […] The release of drugs following a 500 nM treatment for 1 h was assessed at various times out to 6 h post-treatment. Resistant MCF-7/Adr cells were first assessed as they provide a means to evaluate the AEBS targeting hypothesis to explain the dramatic improvement in tumor cell growth inhibition observed for DOX-TEG-TAM relative to DOXSF and clinical DOX. […] In all three cases the drug fluorescence decreased dramatically up to 1 h post-treatment, as free drug was transported from the cell. […] The enhanced uptake and retention of DOX-TEG-TAM relative to DOX and DOXSF parallels the growth inhibition data of Example 4 and provides evidence in favor of the targeting hypothesis involving interaction with AEBS.
(§3) Uptake and release of DOX, DOXSF, and DOX-TEG-TAM: The uptake and release of DOX-TEG-TAM in breast cancer cells relative to DOX and untargeted DOXSF was performed as described with modifications. Breast cancer cells in log phase growth were dissociated with trypsin-EDTA, counted, resuspended in media at 1.5×10^5 cells/mL, and plated into six well plates (450,000 cells/well) and allowed to adhere overnight. The cells were treated with 0.5 μM DOX, DOXSF, or DOX-TEG-TAM for various amounts of time (20 min, 40 min, and 60 min). Drug treatment was accomplished by addition of 30 μL of 100× drug solution (50 μM) to 3 mL of media which was mixed and immediately added to the cells. For each time point, the media was removed, cells were trypsinized, and trypsinization was quenched with 3 mL phenol red-free RPMI 1640 media (no serum) at 4° C. Cells were pelleted by centrifugation at 300 g for 5 min at 10° C. The supernatant was decanted and the cells were re-suspended in 1 mL serum- and phenol red-free RPMI 1640 media and placed on ice.
For drug retention samples, the cells were treated for 1 h with 0.5 μM DOX, DOXSF, or DOX-TEG-TAM. Following drug treatment, the media was removed and replaced with 3 mL fresh, 37° C., full (containing serum and phenol red indicator) cell media and the cells were incubated for various times (0.5 h, 1 h, 3 h, and 6 h). Following the allotted release times, the cells were prepared as described above. […]
(§4) The extent of drug uptake and retention was measured by flow cytometry. Cells were analyzed with excitation at 488 nm (15 mW Ar ion laser), with emission monitored between 570 and 600 nm. Instrument settings were optimized for each cell line and held constant for all experiments; 10,000 cells were analyzed for anthracycline fluorescence. The data are presented as the mean fluorescence for each condition with the background, drug-free cell fluorescence subtracted.

MDA-MB-435 cells [3] = experiment: Drug distribution by fluorescence microscopy; type: cell-based, human; conditions: for cellular distribution of fluorescence: 500 nM
Protocol: Furthermore, once the trigger has fired the DOX fluorophore should appear nuclear.
Analysis of drug distribution by fluorescence microscopy: MDA-MB-435 cells in log phase growth were dissociated with trypsin-EDTA and counted. Cells were suspended in media at 8.3×10^4 cells/mL and 3 mL of cell solution was aliquoted into 6 well plates and allowed to adhere overnight. The cells were treated with 0.5 μM DOX, DOXSF, or DOX-TEG-TAM for various amounts of time (5 min, 20 min, 40 min, 1 h, and 3 h). Drug treatment was accomplished by addition of 30 μL of 100× drug solution (50 μM) to 3 mL of media which was mixed and immediately added to the cells.
Following drug treatment, the media was removed and cells were washed once with 3 mL of serum- and phenol red-free RPMI 1640 at room temperature and 3 mL of the same media was then added back to each well. The cells were then immediately analyzed by fluorescence microscopy. Each condition was performed individually to minimize the amount of time between drug treatment and fluorescence detection.

MDA-MB-435 cells [4] = experiment: Uptake, release and competition by flow cytometry; type: cell-based, human; conditions: for decrease of uptake in the presence of tamoxifen: 10 μM tamoxifen competitor
Protocol: Additionally, uptake and release data were obtained for DOX, DOXSF, and DOX-TEG-TAM in estrogen receptor-negative MDA-MB-435 and MDA-MB-231 cells.
Competitive inhibition of drug uptake: If DOX-TEG-TAM targeting is AEBS mediated, the presence of a competitive ligand should inhibit uptake.
as §3
For drug retention samples, the cells were treated for 1 h with 0.5 μM DOX, DOXSF, or DOX-TEG-TAM. Following drug treatment, the media was removed and replaced with 3 mL fresh, 37° C., full (containing serum and phenol red indicator) cell media and the cells were incubated for various times (0.5 h, 1 h, 3 h, and 6 h). Following the allotted release times, the cells were prepared as described above. Drug treatment was performed such that all cell samples would be prepared within 2 h.
as §4
The cell samples were prepared and analyzed by flow cytometry as described above.

[5] = MCF-7/Adr (−/+/+), 4 h treatment

CC/C(=C(/c1ccc(O)cc1)c1ccc(OCCN(C)CCOCCOCCO/N=C/c2ccc(O)c(C(=O)NCN[C@H]3C[C@H](O[C@H]4C[C@](O)(C(=O)CO)Cc5c(O)c6c(c(O)c54)C(=O)c4c(OC)cccc4C6=O)O[C@@H](C)[C@H]3O)c2)cc1)c1ccccc1 [11c, E/Z-N-(2-Hydroxy-5-{[2-(2-{2-[(2-{4-[1-(4-hydroxy-phenyl)-2-phenyl-but-1-enyl]-phenoxy}-ethyl)-methyl-amino]-ethoxy}-ethoxy)-ethoxyimino]-methyl}-benzamide)-doxorubicin]
IC50 (MDA-MB-231; MDA-MB-231 (−/+/−), 4 h treatment, listed as DOX-TEG-TAM): 30 ± 5 nM
fold more active than doxorubicin (MCF-7/Adr cells [1]; MCF-7/Adr): 140 fold
fold more cytotoxic than untargeted doxsaliform (MCF-7/Adr cells [1]; MCF-7/Adr): 28 fold
IC50 (MCF-7/Adr cells [1]; [5]): 60 ± 9 nM
IC50 (MCF-7 cells; MCF-7 (ER/AEBS/MDR +/+/−), 4 h treatment, listed as DOX-TEG-TAM): 40 ± 6 nM
IC50 (MDA-MB-435; MDA-MB-435 (−/+/−), 4 h treatment, listed as DOX-TEG-TAM): 40 ± 6 nM
drug uptake (DOX fluorophore) (MCF-7/Adr cells [2]): almost twice as much
drug retention (MCF-7/Adr cells [2]; 6 h after 1 h treatment with 500 nM): maintained a higher level of drug retention relative to DOX and DOXSF
cellular distribution of fluorescence (MDA-MB-435 cells [3]; 20 min): cytosolic fluorescence was observed
cellular distribution of fluorescence (MDA-MB-435 cells [3]; 3 h): predominantly nuclear
fold uptake more than DOX (MDA-MB-435 cells [4]; MDA-MB-435): 5 fold
fold uptake more than DOXSF (MDA-MB-435 cells [4]; MDA-MB-435): 3 fold
effect of estradiol on uptake (MDA-MB-435 cells [4]; MDA-MB-435, 20 nM estradiol): no effect
uptake as % of uptake in the absence of competitor (MDA-MB-435 cells [4]; MDA-MB-435, 0.5 μM drug, 1 h, 10 μM tamoxifen): 47%
fluorophore retention vs DOXSF or DOX (MDA-MB-435 cells [4]; MDA-MB-435, after 1 h treatment with 500 nM): retained to a greater extent

COc1cccc2c1C(=O)c1c(O)c3c(c(O)c1C2=O)C[C@@](O)(C(=O)CO)C[C@@H]3O[C@H]1C[C@H](N)[C@H](O)[C@H](C)O1 [doxorubicin, reference compound]
IC50 (MDA-MB-231; Homo sapiens, MDA-MB-231, 4 h): 300 ± 33 nM
IC50 (MCF-7/Adr cells [1]; Homo sapiens, NCI/ADR-RES, 4 h): 10000 ± 1300 nM
IC50 (MCF-7 cells; Homo sapiens, MCF7, 4 h): 200 ± 26 nM
IC50 (MDA-MB-435; Homo sapiens, MDA-MB-435, 4 h): 150 ± 14 nM
drug uptake (DOX fluorophore) (MCF-7/Adr cells [2]): one relative fluorescent unit
cellular distribution of fluorescence (MDA-MB-435 cells [3]; 20 min): observed in the nucleus
cellular distribution of fluorescence (MDA-MB-435 cells [3]; 3 h): exclusively nuclear
decrease of uptake in the presence of tamoxifen (MDA-MB-435 cells [4]; MDA-MB-435, 0.5 μM drug, 1 h): 8%

COc1cccc2c1C(=O)c1c(O)c3c(c(O)c1C2=O)C[C@@](O)(C(=O)CO)C[C@@H]3O[C@H]1C[C@H](NCNC(=O)c2ccccc2O)[C@H](O)[C@H](C)O1 [doxsaliform, N-(2-Hydroxybenzamido-methyl)-doxorubicin]
fold less cytotoxic than 11a-c (MDA-MB-231; MDA-MB-231): 2-3 fold
IC50 (MDA-MB-231; MDA-MB-231 (−/+/−), 4 h treatment): 80 ± 9 nM
IC50 (MCF-7/Adr cells [1]; [5]): 2000 ± 320 nM
fold less cytotoxic than 11a-c (MCF-7 cells; MCF-7): 2-3 fold
IC50 (MCF-7 cells; MCF-7 (ER/AEBS/MDR +/+/−), 4 h treatment): 70 ± 5 nM
cytotoxicity relative to 11a-c (MDA-MB-435; MDA-MB-435): equally cytotoxic
IC50 (MDA-MB-435; MDA-MB-435 (−/+/−), 4 h treatment): 50 ± 9 nM
drug uptake (DOX fluorophore) (MCF-7/Adr cells [2]): one relative fluorescent unit
localization pattern (MDA-MB-435 cells [3]; control experiment, 0.5 μM): exclusively nuclear
decrease of uptake in the presence of tamoxifen (MDA-MB-435 cells [4]; MDA-MB-435, 0.5 μM drug, 1 h): 6%
